{"source": "patent US20060094880A9", "about": "“Synthetic process for trans-aminocyclohexyl ether compounds” (priority 2003, published 2006)", "tested_on": "sustained AF maintained during continuous vagal nerve stimulation", "experiment": "Canine vagal-AF model: termination of sustained AF during continuous vagal nerve stimulation", "format": "in vivo, Mongrel dogs", "method": "St.-Georges et al., 1997). Dogs are ventilated mechanically with room air supplemented with oxygen via an endotracheal tube at 20 to 25 breaths/minute with a tidal volume obtained from a nomogram. […] Catheters are inserted into the femoral artery for blood pressure recording and blood gas measurement, and into both femoral veins for drug administration and venous sampling. […] Body temperature is maintained at 37-40° C. with a heating blanket. The heart is exposed via a medial thoracotomy and a pericardial cradle is created. […] Drug effects to terminate sustained AF maintained during continuous vagal nerve stimulation are assessed. […] The vagal stimulation voltage is adjusted under control conditions, and then readjusted after each treatment to maintain the same bradycardic effect. […] Diastolic threshold and ERP are determined in duplicate and averaged to give a single value. […] The interval from the stimulus artefact and the peak of the local electrogram is measured as an index of conduction velocity. […] The stimulus voltage-heart rate relationship for vagal nerve stimulation is determined under control conditions in most experiments. […] After the termination of AF, the diastolic threshold and ERP of the atrium and ventricle are determined. […] Group data are expressed as the mean ±SEM. […]"}
{"smiles": "O=C(NCC1CCCCN1)c1cc(OCC(F)(F)F)ccc1OCC(F)(F)F", "note": "(stereo not shown) [Flecainide]", "values": [{"measurement": "Effectiveness as a control in the present study", "result": "comparable to that previously reported"}]}
